Source: patent US5770617A, “Terbenzimidazoles useful as antifungal agents” (Rutgers, The State University of New Jersey, priority 1997, dated 1998)

How the values were obtained:
[1] = target: T1, calf thymus topoisomerase I (Bos taurus, UniProt F1MN93); test: Topoisomerase I-mediated DNA cleavage assay (calf thymus enzyme); assay type: biochemical; conditions: for Topo I-mediated DNA cleavage (REC, Relative Effective Concentration): concentration relative to Hoechst 33342 (arbitrarily 1) producing the same cleavage on plasmid DNA, calf thymus topoisomerase I
T1 construct: DNA topoisomerase I was purified from calf thymus gland as reported previously; from tissue; host or cells: calf thymus gland
T1 sequence (F1MN93 1-767): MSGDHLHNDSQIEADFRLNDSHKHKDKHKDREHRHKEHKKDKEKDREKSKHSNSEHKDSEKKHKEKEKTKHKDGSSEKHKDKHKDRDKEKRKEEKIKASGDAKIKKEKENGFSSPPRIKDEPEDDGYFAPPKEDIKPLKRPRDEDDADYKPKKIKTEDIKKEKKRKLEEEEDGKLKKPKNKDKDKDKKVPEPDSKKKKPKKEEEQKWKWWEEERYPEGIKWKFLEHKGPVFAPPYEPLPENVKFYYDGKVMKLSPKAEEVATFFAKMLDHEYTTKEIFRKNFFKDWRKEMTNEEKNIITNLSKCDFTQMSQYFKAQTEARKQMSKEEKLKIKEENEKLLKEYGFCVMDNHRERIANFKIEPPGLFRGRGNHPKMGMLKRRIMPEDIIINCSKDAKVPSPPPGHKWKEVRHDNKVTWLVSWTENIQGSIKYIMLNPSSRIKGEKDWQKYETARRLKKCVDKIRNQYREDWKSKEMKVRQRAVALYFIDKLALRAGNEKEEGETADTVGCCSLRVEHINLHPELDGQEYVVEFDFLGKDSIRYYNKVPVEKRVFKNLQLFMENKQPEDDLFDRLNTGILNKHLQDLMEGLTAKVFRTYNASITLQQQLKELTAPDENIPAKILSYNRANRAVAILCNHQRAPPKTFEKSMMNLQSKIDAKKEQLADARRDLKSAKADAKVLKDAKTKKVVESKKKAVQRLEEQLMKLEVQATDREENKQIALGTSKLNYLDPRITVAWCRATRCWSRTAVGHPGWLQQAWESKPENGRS
Excerpt: A. Topoisomerase I-Mediated DNA Cleavage Assays
DNA topoisomerase I was purified from calf thymus gland as reported previously by B. D. Halligan et al., J. Biol. Chem., 260, 2475 (1985).
Plasmid YEpG was also purified by the alkali lysis method followed by phenol deproteination and CsCl/ethidium isopycnic centrifugation as described by T. Maniatis et al., Molecular Cloning, A Laboratory Manual, Cold Spring Harbor Labs, N.Y. (1982) at pages 149-185. The end-labeling of the plasmid was accomplished as previously described by L. F. Liu et al., J. Biol. Chem., 258, 15365 (1983). The cleavage assays were performed as previously reported by A. Y. Chen et al., Cancer Res., 53, 1332 (1993). Human topoisomerase I was isolated as a recombinant fusion protein using a T7 expression system.

[2] = target: T2, Aspergillus topoisomerase I (Aspergillus nidulans, UniProt Q5BGS7); test: Covalent transfer of 32P radioactivity from DNA to topoisomerase I (phosphate-transfer); assay type: biochemical; conditions: for phosphate transfer to 105 kDa Aspergillus topoisomerase I: Ho33342 1 mM
T2 construct: about 105 kDa by phosphate transfer
T2 sequence (Q5BGS7 1-871): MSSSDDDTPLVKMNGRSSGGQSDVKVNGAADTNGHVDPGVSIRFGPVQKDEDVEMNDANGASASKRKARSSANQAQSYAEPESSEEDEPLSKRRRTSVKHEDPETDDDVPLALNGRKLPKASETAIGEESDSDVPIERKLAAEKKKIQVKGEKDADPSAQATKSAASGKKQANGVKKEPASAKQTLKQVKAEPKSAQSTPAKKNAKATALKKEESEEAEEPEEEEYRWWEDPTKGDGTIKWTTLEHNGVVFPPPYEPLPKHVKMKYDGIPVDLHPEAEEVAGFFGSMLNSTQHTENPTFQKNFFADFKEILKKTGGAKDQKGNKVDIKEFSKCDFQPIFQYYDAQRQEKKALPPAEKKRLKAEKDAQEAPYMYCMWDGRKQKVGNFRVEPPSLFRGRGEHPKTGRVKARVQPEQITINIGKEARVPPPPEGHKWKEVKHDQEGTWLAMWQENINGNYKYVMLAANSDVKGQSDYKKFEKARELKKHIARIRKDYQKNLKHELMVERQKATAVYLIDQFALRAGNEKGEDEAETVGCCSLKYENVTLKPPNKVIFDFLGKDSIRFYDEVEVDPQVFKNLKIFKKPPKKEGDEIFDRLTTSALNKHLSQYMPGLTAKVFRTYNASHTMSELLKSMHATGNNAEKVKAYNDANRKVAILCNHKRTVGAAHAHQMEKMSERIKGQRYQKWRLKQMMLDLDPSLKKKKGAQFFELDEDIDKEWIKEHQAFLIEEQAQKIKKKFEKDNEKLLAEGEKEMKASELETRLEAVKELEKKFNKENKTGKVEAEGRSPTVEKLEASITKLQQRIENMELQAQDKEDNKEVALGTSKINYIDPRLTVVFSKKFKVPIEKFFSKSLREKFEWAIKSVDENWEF
Procedure: This phosphate-transfer method was a modification of the procedure described previously by T. C. Rowe et al., J. Biol. Chem., 259, 9177 (1984). Briefly, a 100-μl reaction mixture containing 10 mM Tris-HCl, pH 7.5, 1 mM MgCl2, 0.5 mM dithiothreitol, 30 μg/ml of bovine serum albumin, drug (camptothecin or Hoechst 33342) at an indicated concentration, 50 ng of YEpG DNA labeled with ^32 PdATP by the random primer method (Random Primed Labeling Kit, Boehringer Mannheim), and 300 units of human or Aspergillus topoisomerase I, was incubated at 37° C. for 10 minutes. The reactions were terminated by adding NaOH to 0.18M and EDTA to 2.5 mM. After neutralizing the reaction with a precalibrated amount of Tris-HCl, 9 μl of 0.1M CaCl2 and 7.5 μl of 20% SDS were added, and the volume was adjusted to 300 μl with H2 O.
Five units of Bal31 nuclease (New England, BioLabs) were added, and the sample was digested for 1 hour at 25° C. The reaction was terminated by extraction with 1 volume of phenol. The phenol phase was saved and back-extracted once with an equal volume of 10 mM Tris-HCl, pH 8.0, 1 mM EDTA. The protein-oligonucleotide complexes were then precipitated from the phenol phase by adding 10 volumes of ice-cold acetone and placing on ice for 10 minutes. The pellet was dissolved in SDS sample buffer and analyzed by SDS-PAGE. Gel drying and autoradiography were done as described (Hsiang et al., J. Biol. Chem., 260, 14873 (1985)).

Row | Compound | potency as topoisomerase I inhibitor compared with Hoechst 33342, in words [1] | Topo I-mediated DNA cleavage (REC, Relative Effective Concentration) [1] | phosphate transfer to 105 kDa Aspergillus topoisomerase I [2] | phosphate transfer at higher concentrations ([2]; higher concentrations of Ho33342)
1 | c1ccc(-c2ccc3[nH]c(-c4ccc5[nH]c(-c6ccc7[nH]cnc7c6)nc5c4)nc3c2)cc1 [Compound 13, 5-Phenyl-2-[2'(benzimidazol-5"-yl)benzimidazol-5'-yl]benzimidazole] | approximately one-half as potent | 2 |  | 
2 | N#Cc1ccc2[nH]c(-c3ccc4[nH]c(-c5ccc6[nH]cnc6c5)nc4c3)nc2c1 [Compound 11, 5-Cyano-2-[2'-(benzimidazol-5"-yl)benzimidazol-5'-yl]benzimidazole] |  | 1 |  | 
3 | CCOc1ccc(-c2nc3cc(-c4nc5cc(N6CCN(C)CC6)ccc5[nH]4)ccc3[nH]2)cc1 [Hoechst 33342, 2'-(4-ethoxyphenyl)-5-(4-methyl-1-piperazinyl)-2,5'-bi-1H-benzimidazole] |  |  | stimulated the phosphate transfer | progressively inhibited
4 | CC[C@@]1(O)C(=O)OCc2c1cc1n(c2=O)Cc2cc3ccccc3nc2-1 [camptothecin] |  |  | stimulated the phosphate transfer | 
